Patent publication US10681909B2, “Herbicidal triazoles” (FMC Corporation, priority 2014, dated 2020)

Assays:
johnsongrass = experiment: Test C preemergence; format: in vivo, Sorghum halepense; details: for Plant response rating (scale of 0 to 100 where 0 is no effect and 100 is complete control): Johnsongrass, preemergence; for Johnsongrass plant response rating (0 to 100): Preemergence, visual rating after 13 to 15 d
Text: (§1) Seeds of plant species selected from blackgrass (Alopecurus myosuroides), ryegrass, Italian (Italian ryegrass, Lolium multiflorum), wheat (winter wheat, Triticum aestivum), galium (catchweed bedstraw, Galium aparine), corn (Zea mays), crabgrass, large (large crabgrass, Digitaria sanguinalis), foxtail, giant, (giant foxtail, Setaria faberii), johnsongrass (Sorghum halepense), lambsquarters (Chenopodium album), morningglory (Ipomoea coccinea), nutsedge, yellow (yellow nutsedge, Cyperus esculentus), pigweed (Amaranthus retroflexus), ragweed (common ragweed, Ambrosia elatior), soybean (Glycine max), barnyardgrass (Echinochloa crus-galli), oilseed rape (Brassica napus), waterhemp (common waterhemp, Amaranthus rudis), and velvetleaf (Abutilon theophrasti) were planted into a blend of loam soil and sand and treated preemergence with test chemicals formulated in a non-phytotoxic solvent mixture which included a surfactant. At the same time, plants selected from these crop and weed species and also chickweed (common chickweed, Stellaria media), oat, wild (wild oat, Avena fatua), and kochia (Kochia scoparia), were planted in pots containing Sunshine Redi-Earth® planting medium comprising spaghnum peat moss, vermiculite, starter nutrients and dolomitic limestone and treated with postemergence applications of test chemicals formulated in the same manner. Plants ranged in height from 2 to 18 cm (1- to 4-leaf stage) for postemergence treatments. […] A dash (-) response means no test result.

pigweed = experiment: Test C preemergence; format: in vivo, Amaranthus retroflexus; details: for Plant response rating (scale of 0 to 100 where 0 is no effect and 100 is complete control): Pigweed, preemergence; for Pigweed plant response rating (0 to 100): Preemergence, visual rating after 13 to 15 d
Text: as §1

waterhemp = experiment: Test C preemergence; format: in vivo, Amaranthus rudis; details: for Waterhemp plant response rating (0 to 100): Preemergence, visual rating after 13 to 15 d; for Plant response rating (scale of 0 to 100 where 0 is no effect and 100 is complete control): Waterhemp, preemergence, 250 g ai/ha
Text: as §1

velvetleaf = experiment: Test C preemergence; format: in vivo, Abutilon theophrasti; details: for Velvetleaf plant response rating (0 to 100): Preemergence, visual rating after 13 to 15 d; for Plant response rating (scale of 0 to 100 where 0 is no effect and 100 is complete control): Velvetleaf, preemergence, 250 g ai/ha
Text: as §1

blackgrass = experiment: Test D preemergence; format: in vivo, Alopecurus myosuroides; details: for Plant response rating (0 to 100), Blackgrass: 16 g ai/ha, 0 is no effect, 100 is complete control; for Plant response rating: Blackgrass: scale 0 to 100
Text: (§2) Seeds of plant species selected from bluegrass (annual bluegrass, Poa annua), blackgrass (Alopecurus myosuroides), canarygrass (Phalaris minor), chickweed (common chickweed, Stellaria media), galium (catchweed bedstraw, Galium aparine), bromegrass, down (downy bromegrass, Bromus tectorum), Russian thistle (Salsola kali), field poppy (Papaver rhoeas), field violet (Viola arvensis), foxtail, green (green foxtail, Setaria viridis), deadnettle (henbit deadnettle, Lamium amplexicaule), ryegrass, Ital. (Italian ryegrass, Lolium multiflorum), kochia (Kochia scoparia), lambsquarters (Chenopodium album), oilseed rape (Brassica napus), pigweed (Amaranthus retroflexus), chamomile (scentless chamomile, Matricaria inodora), speedwell (bird's-eye speedwell, Veronica persica), barley, spring (spring barley, Hordeum vulgare), wheat, spring (spring wheat, Triticum aestivum), buckwheat, wild (wild buckwheat, Polygonum convolvulus), wild mustard (Sinapis arvensis), oat, wild (wild oat, Avena fatua), radish, wild (wild radish, Raphanus raphanistrum), […]), barley, winter (winter barley, Hordeum vulgare), and wheat, winter (winter wheat, Triticum aestivum) were planted into a silt loam soil and treated preemergence with test chemicals formulated in a non-phytotoxic solvent mixture which included a surfactant. At the same time, these species were planted in pots containing Sunshine Redi-Earth® planting medium comprising spaghnum peat moss, vermiculite, starter nutrients and dolomitic limestone and treated with postemergence applications of the test chemicals formulated in the same manner. Plants ranged in height from 2 to 18 cm (1- to 4-leaf stage). Treated plants and controls were maintained in a controlled growth environment for 14 to 21 d after which time all species were compared to controls and visually evaluated. […] A dash (-) response means no test result.

chickweed = experiment: Test D preemergence; format: in vivo, Stellaria media; details: for Plant response rating (0 to 100), Chickweed: 16 g ai/ha, 0 is no effect, 100 is complete control; for Plant response rating: Chickweed: scale 0 to 100
Text: as §2

chamomile = experiment: Test D preemergence; format: in vivo, Matricaria inodora; details: for Plant response rating (0 to 100), Chamomile: 16 g ai/ha, 0 is no effect, 100 is complete control; for Plant response rating: Chamomile: scale 0 to 100
Text: as §2

wheat, spring = experiment: Test D preemergence; format: in vivo, Triticum aestivum; details: for Plant response rating (0 to 100), Wheat, Spring: 16 g ai/ha, 0 is no effect, 100 is complete control; for Plant response rating: Wheat, Spring: scale 0 to 100
Text: as §2

wheat, winter = experiment: Test D preemergence; format: in vivo, Triticum aestivum; details: for Plant response rating (0 to 100), Wheat, Winter: 16 g ai/ha, 0 is no effect, 100 is complete control; for Plant response rating: Wheat, Winter: scale 0 to 100
Text: as §2

bluegrass = experiment: Test D postemergence; format: in vivo, Poa annua; details: scale 0 to 100
Text: as §2

wild mustard = experiment: Test D postemergence; format: in vivo, Sinapis arvensis; details: scale 0 to 100
Text: as §2

FC(F)(F)COc1nc(-c2ccccc2)nn1Cc1ccnc(C(F)(F)F)c1 [Compound 24]
Plant response rating (scale of 0 to 100 where 0 is no effect and 100 is complete control) (johnsongrass; 125 g ai/ha): 55 | Plant response rating (scale of 0 to 100 where 0 is no effect and 100 is complete control) (johnsongrass; 250 g ai/ha): 85 | Johnsongrass plant response rating (0 to 100) (johnsongrass; 31 g ai/ha): 10 | Johnsongrass plant response rating (0 to 100) (johnsongrass; 62 g ai/ha): 40 | Plant response rating (scale of 0 to 100 where 0 is no effect and 100 is complete control) (pigweed; 125 g ai/ha): 100 | Plant response rating (scale of 0 to 100 where 0 is no effect and 100 is complete control) (pigweed; 250 g ai/ha): 100 | Pigweed plant response rating (0 to 100) (pigweed; 31 g ai/ha): 100 | Pigweed plant response rating (0 to 100) (pigweed; 62 g ai/ha): 100 | Waterhemp plant response rating (0 to 100) (waterhemp; 31 g ai/ha): 100 | Waterhemp plant response rating (0 to 100) (waterhemp; 62 g ai/ha): 100 | Plant response rating (scale of 0 to 100 where 0 is no effect and 100 is complete control) (waterhemp): 100 | Velvetleaf plant response rating (0 to 100) (velvetleaf; 31 g ai/ha): 30 | Velvetleaf plant response rating (0 to 100) (velvetleaf; 62 g ai/ha): 45 | Plant response rating (scale of 0 to 100 where 0 is no effect and 100 is complete control) (velvetleaf): 60 | Plant response rating (0 to 100), Blackgrass (blackgrass): 20 | Plant response rating: Blackgrass (blackgrass; 31 g ai/ha): 45 | Plant response rating: Blackgrass (blackgrass; 62 g ai/ha): 50 | Plant response rating: Blackgrass (blackgrass; 125 g ai/ha): 65 | Plant response rating (0 to 100), Chickweed (chickweed): 55 | Plant response rating: Chickweed (chickweed; 31 g ai/ha): 60 | Plant response rating: Chickweed (chickweed; 62 g ai/ha): 70 | Plant response rating: Chickweed (chickweed; 125 g ai/ha): 90 | Plant response rating (0 to 100), Chamomile (chamomile): 0 | Plant response rating: Chamomile (chamomile; 31 g ai/ha): 35 | Plant response rating: Chamomile (chamomile; 62 g ai/ha): 85 | Plant response rating: Chamomile (chamomile; 125 g ai/ha): 90 | Plant response rating (0 to 100), Wheat, Spring (wheat, spring): 15 | Plant response rating: Wheat, Spring (wheat, spring; 62 g ai/ha): 25 | Plant response rating: Wheat, Spring (wheat, spring; 125 g ai/ha): 15 | Plant response rating (0 to 100), Wheat, Winter (wheat, winter): 15 | Plant response rating: Wheat, Winter (wheat, winter; 62 g ai/ha): 20 | Plant response rating: Wheat, Winter (wheat, winter; 125 g ai/ha): 20 | Plant response rating: Bluegrass (bluegrass; 16 g ai/ha): 15 | Plant response rating: Bluegrass (bluegrass; 31 g ai/ha): 35 | Plant response rating: Bluegrass (bluegrass; 62 g ai/ha): 60 | Plant response rating: Bluegrass (bluegrass; 125 g ai/ha): 70 | Plant response rating: Mustard, Wild (wild mustard; 16 g ai/ha): 65 | Plant response rating: Mustard, Wild (wild mustard; 31 g ai/ha): 70 | Plant response rating: Mustard, Wild (wild mustard; 62 g ai/ha): 100 | Plant response rating: Mustard, Wild (wild mustard; 125 g ai/ha): 100

CCOc1nc(-c2ccccc2)nn1Cc1ccnc(C(F)(F)F)c1 [Compound 27]
Plant response rating (scale of 0 to 100 where 0 is no effect and 100 is complete control) (johnsongrass; 125 g ai/ha): 80 | Plant response rating (scale of 0 to 100 where 0 is no effect and 100 is complete control) (johnsongrass; 250 g ai/ha): 100 | Johnsongrass plant response rating (0 to 100) (johnsongrass; 31 g ai/ha): 45 | Johnsongrass plant response rating (0 to 100) (johnsongrass; 62 g ai/ha): 80 | Plant response rating (scale of 0 to 100 where 0 is no effect and 100 is complete control) (pigweed; 125 g ai/ha): 100 | Plant response rating (scale of 0 to 100 where 0 is no effect and 100 is complete control) (pigweed; 250 g ai/ha): 100 | Pigweed plant response rating (0 to 100) (pigweed; 31 g ai/ha): 100 | Pigweed plant response rating (0 to 100) (pigweed; 62 g ai/ha): 100 | Waterhemp plant response rating (0 to 100) (waterhemp; 31 g ai/ha): 100 | Waterhemp plant response rating (0 to 100) (waterhemp; 62 g ai/ha): 100 | Plant response rating (scale of 0 to 100 where 0 is no effect and 100 is complete control) (waterhemp): 100 | Velvetleaf plant response rating (0 to 100) (velvetleaf; 31 g ai/ha): 10 | Velvetleaf plant response rating (0 to 100) (velvetleaf; 62 g ai/ha): 70 | Plant response rating (scale of 0 to 100 where 0 is no effect and 100 is complete control) (velvetleaf): 100 | Plant response rating (0 to 100), Blackgrass (blackgrass): 25 | Plant response rating: Blackgrass (blackgrass; 31 g ai/ha): 30 | Plant response rating: Blackgrass (blackgrass; 62 g ai/ha): 45 | Plant response rating: Blackgrass (blackgrass; 125 g ai/ha): 70 | Plant response rating (0 to 100), Chickweed (chickweed): 85 | Plant response rating: Chickweed (chickweed; 31 g ai/ha): 95 | Plant response rating: Chickweed (chickweed; 62 g ai/ha): 100 | Plant response rating: Chickweed (chickweed; 125 g ai/ha): 100 | Plant response rating (0 to 100), Chamomile (chamomile): 10 | Plant response rating: Chamomile (chamomile; 31 g ai/ha): 90 | Plant response rating: Chamomile (chamomile; 62 g ai/ha): 100 | Plant response rating: Chamomile (chamomile; 125 g ai/ha): 100 | Plant response rating (0 to 100), Wheat, Spring (wheat, spring): 15 | Plant response rating: Wheat, Spring (wheat, spring; 62 g ai/ha): 20 | Plant response rating: Wheat, Spring (wheat, spring; 125 g ai/ha): 35 | Plant response rating (0 to 100), Wheat, Winter (wheat, winter): 25 | Plant response rating: Wheat, Winter (wheat, winter; 62 g ai/ha): 30 | Plant response rating: Wheat, Winter (wheat, winter; 125 g ai/ha): 30 | Plant response rating: Bluegrass (bluegrass; 16 g ai/ha): 35 | Plant response rating: Bluegrass (bluegrass; 31 g ai/ha): 60 | Plant response rating: Bluegrass (bluegrass; 62 g ai/ha): 65 | Plant response rating: Bluegrass (bluegrass; 125 g ai/ha): 70 | Plant response rating: Mustard, Wild (wild mustard; 16 g ai/ha): 80 | Plant response rating: Mustard, Wild (wild mustard; 31 g ai/ha): 100 | Plant response rating: Mustard, Wild (wild mustard; 62 g ai/ha): 100 | Plant response rating: Mustard, Wild (wild mustard; 125 g ai/ha): 100
